21 compounds from PubChem BioAssay (NCI) can be followed below.

What all share (assay): NCI anticancer screen, dose series, 48 h
Experiment [1] relates to ACHN renal.
In experiment [2] the test system is 786-0 renal.
Experiment [3] has as its system HOP-92 NSCLC.
Experiment [4] relates to SK-OV-3 ovarian.
The test system of experiment [5] is NCI-H226 lung.
Experiment [6] has as its system OVCAR-3 ovarian.
The test system of experiment [7] is RPMI-8226 leukemia.
Experiment [8] concerns UO-31 renal.
For experiment [9], the system named is MDA-MB-231 breast.
In experiment [10] the test system is NCI-H23 lung.
The subject of experiment [11] is MALME-3M melanoma.
Experiment [12] has as its system CAKI-1 renal.

Several values for one entry are separate records, joined by “and”; a condition that tells them apart may be missing. Equal values may be shown once.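 Method: 48-hour compound exposure of cells in 96-well plates, five concentrations, linear interpolation of endpoints. GI50 = concentration required for 50% inhibition of growth. At the TGI there is no net growth.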

Regarding `CCOC(=O)C(NC(=O)c1ccccc1)(N1CCN(c2cc3c(cc2F)c(=O)c(C(=O)O)cn3C2CC2)CC1)C(F)(F)F` (centres undefined), the TGI in experiment [1] was 58.9 µM; in [2], over 100 µM; in [3] it was 38 µM; in [4], 80.2 µM; in experiment [5], 45.2 µM; in experiment [6], 48.6 µM. In addition, the TGI in experiment [7] was found to be 54.1 µM; in [8], 63.3 µM; in experiment [9] it was 31 µM; in [10], 32.9 µM; in [11], 39.3 µM; in experiment [12], 50.2 µM.

Regarding `O=C1C=C(Nc2ccc(S(=O)(=O)Nc3nccs3)cc2)c2ccccc2C1=O`, the TGI in experiment [1] is 63.5 µM; in experiment [2], over 100 µM; in [3], over 100 µM; in experiment [4], over 100 µM; in experiment [5] it was 70.1 µM; in experiment [6], 36 µM. Besides, the TGI in experiment [7] was 98.5 µM; in experiment [8] it was over 100 µM; in [9] it was 71.3 µM; in [10] it was over 100 µM; in [11], 48.7 µM; in [12] it was 82.9 µM.

As for `CC(=O)c1c(N=[N+]=[N-])c2cccc3c2n(c1=O)CCC3`, the TGI in experiment [1] was 54.2 µM; in [2], 33.5 µM; in experiment [3], 67.7 µM; in experiment [4], over 100 µM; in [5] it was 50.4 µM; in experiment [6], 18.9 µM. In addition, the TGI in [7] came out at 66.9 µM; in experiment [8] it was 55.6 µM; in [9], 32.1 µM; in experiment [10], 45.6 µM; in experiment [11], 27.6 µM; in [12], 57.8 µM.

Consider `C=C1CCCCCCCCC/C=C/1SCCCSC`, for which the TGI in experiment [1], in experiment [2], in experiment [3], in experiment [4], in experiment [5] and in [6] was over 100 µM each time. Besides, the TGI in experiment [7], in [8], in [9], in [10], in experiment [11] and in experiment [12] was over 100 µM throughout.

As for `CCOC(=O)C(Cc1ccc(O)cc1)Nc1nc(=O)c2c(=O)oc(Cl)cc2o1` (centres undefined), the TGI in experiment [1] was 24.7 µM; in [2] it was 22.3 µM; in experiment [3] it was 25.9 µM; in experiment [4], 27.7 µM; in experiment [5], 42.5 µM; in experiment [6], 20 µM. For the same compound, the TGI is 8.59 µM in experiment [7]; 23.8 µM in experiment [8]; 23.1 µM in experiment [9]; 40.5 µM in experiment [10]; 16.5 µM in [11]; 16.6 µM in experiment [12].

`Cc1ccc(C(=O)NCc2ccccc2)cc1N=NN(C)C`: the TGI in [1], in [2], in experiment [3], in experiment [4], in experiment [5] and in experiment [6] was over 100 µM throughout. Also, the TGI in experiment [7], in experiment [8], in experiment [9], in experiment [10], in experiment [11] and in [12] was over 100 µM each time.

`CC(=O)c1ccc2c(c1)C(=O)c1sc(C(C)=O)cc1C2=O`: the GI50 in [1] was 0.405 µM; in [4] it was 5.66 µM; in experiment [5], 1.43 µM; in [6] it was 0.329 µM; in experiment [8] it was 1.4 µM; in experiment [9], 0.521 µM. The GI50 in experiment [10] was 0.607 µM. Besides, the TGI is 1.54 µM and 1.5 µM in experiment [1]; 50 µM in experiment [2]; 50 µM in [3]; 14.3 µM and 21.4 µM in experiment [4]; 2.2 µM and 4.03 µM in experiment [5]; 2.36 µM and 1.85 µM in experiment [6]. Besides, the TGI was 23.8 µM in experiment [7]; 2.15 µM and 2.69 µM in [8]; 3.75 µM and 7.75 µM in experiment [9]; 2.6 µM and 5.35 µM in experiment [10]; 1.2 µM in [11]; 4.48 µM in [12].

Take `CC(=O)OC(CCC1(C)OC1COc1ccc(CCNC(=O)C=C(C)C)cc1)C(C)(C)OC(C)=O` (centres undefined): the TGI in experiment [1], in experiment [2], in [3], in experiment [4], in experiment [5] and in experiment [6] was over 100 µM each time. The TGI in experiment [7] is 60.7 µM; in experiment [8], over 100 µM; in experiment [9] it was over 100 µM; in [10] it was over 100 µM; in experiment [11], over 100 µM; in experiment [12] it was over 100 µM.

For the compound `O=C(Cn1c2ccc(Br)cc2c2nc3ccccc3nc21)NNC(=S)NC1CCCCC1`, the TGI in experiment [1] worked out at 29.6 µM; in experiment [2], 28.9 µM; in experiment [3], 27.1 µM; in experiment [4] it was 70.8 µM; in experiment [5], 33.6 µM; in experiment [6] it was 22.8 µM. The TGI in experiment [7] came to 26.8 µM; in experiment [8] it was 22.3 µM; in experiment [9], 31.6 µM; in experiment [10], 30.5 µM; in [11] it was 39.5 µM; in experiment [12], 38.6 µM.

Consider `O=C1OCC2OC(=O)c3cc(O)c(O)c(O)c3-c3c(O)c(O)c(O)c4c3C(=O)OC(C2OC(=O)c2cc(O)c(O)c(O)c2-c2c1cc(O)c(O)c2O)C1OC(=O)C2C4=C(O)C(=O)C23Oc2cc(O)c4c(c2[C@H]13)O[C@H](c1ccc(O)c(O)c1)[C@@H](O)C4` (some centres undefined), for which the TGI in experiment [1] is 56.6 µM; in [2], 56.7 µM; in [3] it was over 100 µM; in experiment [4] it was over 100 µM; in [5], 35.6 µM; in [6] it was 83.4 µM. Also, the TGI in [7] was 64.4 µM; in experiment [8] it was over 100 µM; in experiment [9] it was 43.5 µM; in experiment [10], 47.3 µM; in [11], 72.2 µM; in experiment [12], 30.7 µM.

For the compound `CN(C)CCCNc1ccc2ncn3c4ccc(O)cc4c(=O)c1c23`, the TGI is 4.04 µM in experiment [1]; 14.7 µM in experiment [2]; 15.3 µM in [3]; 15.1 µM in [4]; 3.59 µM in experiment [5]; 17.6 µM in experiment [6]. The TGI in [7] was 18.2 µM; in experiment [8] it was 11.4 µM; in [9], 21.7 µM; in experiment [10] it was 10.7 µM; in [11] it was 16 µM; in experiment [12] it was 1.59 µM.

In the case of `O=C1CCSCCC(=O)Nc2ccccc2N1`, the TGI in experiment [1], in experiment [2], in [3], in experiment [4], in [5] and in experiment [6] was over 100 µM throughout. Further, the TGI in experiment [7], in experiment [8], in [9], in experiment [10], in experiment [11] and in experiment [12] was over 100 µM each time.

Take `C=CC1(CC[C@]2(c3ccc(OC)c(OC)c3)C=[N+]([O-])O[C@H](O[C@@H]3CCCC[C@H]3C(C)(C)c3ccccc3)C2)OCC(C)(C)CO1`: the TGI was over 50 µM in experiment [1]; over 45.8 µM in [2]; over 46.6 µM in [3]; over 65.3 µM in experiment [4]; 38 µM in [5]; 25.1 µM in [6]. Further, the TGI in experiment [7] was 26.5 µM; in [8], over 48.7 µM; in experiment [9], 33.9 µM; in experiment [10], over 100 µM; in [11], 24.8 µM; in experiment [12], over 28 µM.

With `Cc1c2ccc3ccccc3c2c[n+]2ccccc12`, the TGI in experiment [1] is over 100 µM; in [2], 25.8 µM; in experiment [3], 60.8 µM; in experiment [4] it was 83.2 µM; in experiment [5] it was 20.1 µM; in experiment [6] it was 35.4 µM. Moreover, the TGI in experiment [7] is 66.2 µM; in experiment [8], 60.6 µM; in experiment [9] it was over 82.3 µM; in [10], 15.3 µM; in experiment [11], 3.77 µM; in experiment [12] it was over 100 µM.

Consider `CCCCC1Cc2cc(O)ccc2-c2nc3cc(O)ccc3n21` (centres undefined) (tested in a mixture with another compound), for which the TGI stood at 33.7 µM in experiment [1]; 52.9 µM in experiment [2]; 30.5 µM in experiment [3]; 40.4 µM in experiment [4]; 46.3 µM in experiment [5]; 77.7 µM in experiment [6]. Also, the TGI in [7] is 31.5 µM; in [8], 28.5 µM; in [9], 31.3 µM; in [10], 72.5 µM; in experiment [11], 57.8 µM; in experiment [12] it was 89 µM.

`O=C1CC(=O)NC(=NN2C(=O)/C(=C/c3ccc(Cl)c(Cl)c3)N=C2c2ccccc2)N1`: the TGI in experiment [1] was over 100 µM; in [2], over 100 µM; in experiment [3], 89.8 µM; in experiment [4], over 100 µM; in experiment [5] it was over 100 µM; in experiment [6], 49.4 µM. For the same compound, the TGI was 47 µM in experiment [7]; over 100 µM in experiment [8]; 51.7 µM in experiment [9]; over 100 µM in experiment [10]; over 100 µM in experiment [11]; over 100 µM in experiment [12].

On to `C/C(=N\NC(=S)N1CCCC1)c1nc2ncccc2[nH]1`, for which the TGI in [1] was 11.4 µM; in [2], 21.7 µM; in experiment [3], 8.5 µM; in experiment [4], 54.2 µM; in experiment [5] it was 4.31 µM; in experiment [6] it was over 100 µM. Besides, the TGI was 39.4 µM in experiment [7]; 0.492 µM in [8]; over 100 µM in experiment [9]; 22.1 µM in experiment [10]; 63.9 µM in experiment [11]; 37.1 µM in experiment [12].

On to `COCn1cnc2c(=O)nc(SC)n(-c3ccccc3)c21`, for which the TGI in [1], in experiment [2], in experiment [3], in [4], in [5] and in experiment [6] was over 100 µM each time. Moreover, the TGI in experiment [7], in [8], in experiment [9], in [10], in experiment [11] and in experiment [12] was over 100 µM in each case.

For `N#Cc1cc2c(cc1Cl)Sc1nnc(Nc3ccccc3)n1S2(=O)=O`, the TGI came out at 3.32 µM in experiment [1]; 8.49 µM in [2]; 4.74 µM in experiment [3]; 17.3 µM in experiment [4]; 5.99 µM in experiment [5]; 3.82 µM in experiment [6]. The TGI in [7] stood at 9.17 µM; in experiment [8] it was 3.89 µM; in [9], 4.7 µM; in experiment [10], 3.26 µM; in experiment [11], 5 µM; in experiment [12], 3.34 µM.

Take `OC(C/C=N/N=C/CC(O)(C(F)(F)Cl)C(F)(F)Cl)(C(F)(F)Cl)C(F)(F)Cl`: the TGI in [1], in experiment [2], in experiment [3], in [4], in experiment [5] and in experiment [6] was over 10 µM in each case. The TGI in experiment [7], in experiment [8], in experiment [9], in experiment [10], in experiment [11] and in experiment [12] was over 10 µM each time.

For the compound `COc1cc2c(cc1O)NC(=O)[C@@H]1CCCN1C2=O`, the TGI in experiment [1], in experiment [2], in [3], in experiment [4], in experiment [5] and in [6] was over 100 µM in each case. Besides, the TGI in experiment [7], in experiment [8], in [9], in [10], in experiment [11] and in experiment [12] was over 100 µM in each case.
